Holding throughout (type): biochemical
The target of one assay is KAT6A (Homo sapiens (Human), UniProt Q92794). In words: KAT assay (SAMDI mass spectrometry), KAT6A.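 Further: Baculovirus-expressed KAT6A acetylating histone H3 (1-21) peptide (2 µM), 30-60 min at room temperature, % product conversion fitted to Morrison equation for tight-binding competitive inhibitors.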
Another assay addresses KAT6B (Homo sapiens (Human), UniProt Q8WYB5). Description: KAT assay (SAMDI mass spectrometry), KAT6B.
In another assay the target is KAT5 (Homo sapiens (Human), UniProt Q92993). In words: KAT assay (SAMDI mass spectrometry), KAT5.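 Further: Baculovirus-expressed KAT5 acetylating a histone H4 peptide at room temperature, read as percent conversion to product, Ki from a Morrison tight-binding competitive fit.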 To be noted: read-out: KAT5 Ki at 1 μM AcCoA.
The next assay concerns the target KAT7 (Homo sapiens (Human), UniProt O95251). In words: KAT assay (SAMDI mass spectrometry), KAT7.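 Further: Baculovirus-expressed enzyme acetylating a histone peptide at room temperature, percent conversion from product and substrate peak areas, Ki from a Morrison tight-binding competitive fit.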
The target of a further assay is KAT8 (Homo sapiens (Human), UniProt Q9H7Z6). In words: KAT assay (SAMDI mass spectrometry), KAT8. To be noted: read-out: KAT8 Ki at 1 μM AcCoA.
Chain of KAT8 (Q9H7Z6 whole entry): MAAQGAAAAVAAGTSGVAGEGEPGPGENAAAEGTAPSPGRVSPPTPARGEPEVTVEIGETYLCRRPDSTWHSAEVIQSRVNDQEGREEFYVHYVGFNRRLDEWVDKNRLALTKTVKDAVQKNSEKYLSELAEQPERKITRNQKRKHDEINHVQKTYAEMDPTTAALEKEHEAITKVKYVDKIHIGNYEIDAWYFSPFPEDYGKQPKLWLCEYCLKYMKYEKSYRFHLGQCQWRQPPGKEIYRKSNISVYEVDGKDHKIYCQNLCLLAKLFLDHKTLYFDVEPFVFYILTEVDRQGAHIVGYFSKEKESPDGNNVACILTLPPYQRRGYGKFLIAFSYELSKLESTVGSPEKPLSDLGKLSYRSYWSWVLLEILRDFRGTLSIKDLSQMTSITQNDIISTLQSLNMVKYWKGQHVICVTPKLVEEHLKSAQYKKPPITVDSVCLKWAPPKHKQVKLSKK
Where [1] appears, read: read-out: KAT6a Ki at 1 μM AcCoA, 1 μM AcCoA.
[2] abbreviates: read-out: KAT6a Ki at 10 μM AcCoA, 10 μM AcCoA.
Where [3] appears, read: 25 μM AcCoA, read-out: KAT6b Ki at 25 μM AcCoA.
Where [4] appears, read: read-out: KAT7 Ki at 1 μM AcCoA.
The mark [5] stands for this setting: read-out: KAT6b Ki at 1 μM AcCoA, 1 μM AcCoA.

Read-outs that look alike come from different tables or passages of the source.

Chain of KAT7 (O95251 whole entry): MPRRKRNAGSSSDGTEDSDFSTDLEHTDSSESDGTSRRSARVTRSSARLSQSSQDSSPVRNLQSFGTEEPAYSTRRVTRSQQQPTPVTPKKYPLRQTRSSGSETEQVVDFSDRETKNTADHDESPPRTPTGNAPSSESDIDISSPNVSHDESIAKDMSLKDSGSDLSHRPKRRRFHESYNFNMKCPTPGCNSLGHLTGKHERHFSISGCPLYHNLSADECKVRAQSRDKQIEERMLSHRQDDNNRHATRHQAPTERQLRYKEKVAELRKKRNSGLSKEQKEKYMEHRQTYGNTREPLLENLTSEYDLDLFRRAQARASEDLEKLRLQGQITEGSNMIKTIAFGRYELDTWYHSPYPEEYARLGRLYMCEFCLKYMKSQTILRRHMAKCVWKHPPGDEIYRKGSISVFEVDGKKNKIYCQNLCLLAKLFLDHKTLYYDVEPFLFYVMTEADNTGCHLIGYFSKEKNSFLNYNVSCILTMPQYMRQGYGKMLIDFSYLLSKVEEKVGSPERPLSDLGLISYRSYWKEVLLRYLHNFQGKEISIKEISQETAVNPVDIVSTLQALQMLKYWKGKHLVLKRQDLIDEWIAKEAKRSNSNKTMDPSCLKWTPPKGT
Chain of KAT6A (Q92794 whole entry): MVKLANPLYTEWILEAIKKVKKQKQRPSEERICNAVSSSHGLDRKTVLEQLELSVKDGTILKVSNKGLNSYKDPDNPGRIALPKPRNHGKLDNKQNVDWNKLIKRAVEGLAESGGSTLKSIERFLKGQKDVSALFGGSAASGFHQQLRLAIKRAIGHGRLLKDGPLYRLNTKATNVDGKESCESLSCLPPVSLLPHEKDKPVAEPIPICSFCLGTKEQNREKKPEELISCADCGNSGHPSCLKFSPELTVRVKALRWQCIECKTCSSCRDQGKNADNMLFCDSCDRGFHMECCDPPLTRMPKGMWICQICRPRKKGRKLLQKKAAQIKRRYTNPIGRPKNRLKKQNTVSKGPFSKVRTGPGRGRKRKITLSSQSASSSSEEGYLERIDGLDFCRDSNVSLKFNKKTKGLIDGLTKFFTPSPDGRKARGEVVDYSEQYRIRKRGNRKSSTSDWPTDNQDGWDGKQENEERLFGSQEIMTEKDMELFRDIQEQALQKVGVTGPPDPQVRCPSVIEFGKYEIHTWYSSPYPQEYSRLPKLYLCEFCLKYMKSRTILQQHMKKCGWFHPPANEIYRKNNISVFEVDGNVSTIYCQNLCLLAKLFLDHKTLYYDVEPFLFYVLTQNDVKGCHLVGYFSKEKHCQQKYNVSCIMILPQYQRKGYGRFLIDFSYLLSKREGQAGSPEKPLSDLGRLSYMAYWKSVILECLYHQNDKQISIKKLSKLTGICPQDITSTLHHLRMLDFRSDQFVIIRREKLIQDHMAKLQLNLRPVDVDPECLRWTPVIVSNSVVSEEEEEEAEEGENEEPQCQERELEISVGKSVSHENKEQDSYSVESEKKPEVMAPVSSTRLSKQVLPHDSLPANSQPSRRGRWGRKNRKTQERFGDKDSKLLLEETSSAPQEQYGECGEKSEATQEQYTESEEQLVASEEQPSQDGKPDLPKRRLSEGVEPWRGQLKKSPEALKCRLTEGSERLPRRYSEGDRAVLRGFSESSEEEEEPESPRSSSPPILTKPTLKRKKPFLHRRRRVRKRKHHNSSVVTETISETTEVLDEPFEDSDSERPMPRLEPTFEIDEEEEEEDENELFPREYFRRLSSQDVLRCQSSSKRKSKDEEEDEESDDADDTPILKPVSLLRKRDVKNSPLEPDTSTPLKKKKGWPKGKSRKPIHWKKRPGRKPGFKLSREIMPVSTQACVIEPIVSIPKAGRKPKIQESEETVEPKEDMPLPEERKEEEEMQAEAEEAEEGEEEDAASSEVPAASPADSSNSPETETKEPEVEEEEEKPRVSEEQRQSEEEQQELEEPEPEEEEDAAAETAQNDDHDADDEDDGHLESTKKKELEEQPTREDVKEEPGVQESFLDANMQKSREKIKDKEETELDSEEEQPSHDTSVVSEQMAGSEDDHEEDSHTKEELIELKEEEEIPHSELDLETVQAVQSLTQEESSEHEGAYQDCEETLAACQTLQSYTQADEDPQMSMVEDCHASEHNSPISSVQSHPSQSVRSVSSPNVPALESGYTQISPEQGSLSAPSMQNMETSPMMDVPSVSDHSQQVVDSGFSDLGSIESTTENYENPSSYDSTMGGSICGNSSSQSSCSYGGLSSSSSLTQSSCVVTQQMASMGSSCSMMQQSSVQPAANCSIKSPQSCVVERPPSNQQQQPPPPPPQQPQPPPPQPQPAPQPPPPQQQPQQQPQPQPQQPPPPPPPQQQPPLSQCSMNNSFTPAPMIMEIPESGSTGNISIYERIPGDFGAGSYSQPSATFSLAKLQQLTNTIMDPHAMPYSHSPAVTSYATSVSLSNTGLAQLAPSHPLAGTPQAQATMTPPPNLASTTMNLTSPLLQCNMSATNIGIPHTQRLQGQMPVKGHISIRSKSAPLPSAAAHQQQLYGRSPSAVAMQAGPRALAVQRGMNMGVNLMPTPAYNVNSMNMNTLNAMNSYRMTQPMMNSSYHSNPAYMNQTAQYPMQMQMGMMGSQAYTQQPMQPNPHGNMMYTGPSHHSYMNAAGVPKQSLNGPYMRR
Chain of KAT6B (Q8WYB5 whole entry): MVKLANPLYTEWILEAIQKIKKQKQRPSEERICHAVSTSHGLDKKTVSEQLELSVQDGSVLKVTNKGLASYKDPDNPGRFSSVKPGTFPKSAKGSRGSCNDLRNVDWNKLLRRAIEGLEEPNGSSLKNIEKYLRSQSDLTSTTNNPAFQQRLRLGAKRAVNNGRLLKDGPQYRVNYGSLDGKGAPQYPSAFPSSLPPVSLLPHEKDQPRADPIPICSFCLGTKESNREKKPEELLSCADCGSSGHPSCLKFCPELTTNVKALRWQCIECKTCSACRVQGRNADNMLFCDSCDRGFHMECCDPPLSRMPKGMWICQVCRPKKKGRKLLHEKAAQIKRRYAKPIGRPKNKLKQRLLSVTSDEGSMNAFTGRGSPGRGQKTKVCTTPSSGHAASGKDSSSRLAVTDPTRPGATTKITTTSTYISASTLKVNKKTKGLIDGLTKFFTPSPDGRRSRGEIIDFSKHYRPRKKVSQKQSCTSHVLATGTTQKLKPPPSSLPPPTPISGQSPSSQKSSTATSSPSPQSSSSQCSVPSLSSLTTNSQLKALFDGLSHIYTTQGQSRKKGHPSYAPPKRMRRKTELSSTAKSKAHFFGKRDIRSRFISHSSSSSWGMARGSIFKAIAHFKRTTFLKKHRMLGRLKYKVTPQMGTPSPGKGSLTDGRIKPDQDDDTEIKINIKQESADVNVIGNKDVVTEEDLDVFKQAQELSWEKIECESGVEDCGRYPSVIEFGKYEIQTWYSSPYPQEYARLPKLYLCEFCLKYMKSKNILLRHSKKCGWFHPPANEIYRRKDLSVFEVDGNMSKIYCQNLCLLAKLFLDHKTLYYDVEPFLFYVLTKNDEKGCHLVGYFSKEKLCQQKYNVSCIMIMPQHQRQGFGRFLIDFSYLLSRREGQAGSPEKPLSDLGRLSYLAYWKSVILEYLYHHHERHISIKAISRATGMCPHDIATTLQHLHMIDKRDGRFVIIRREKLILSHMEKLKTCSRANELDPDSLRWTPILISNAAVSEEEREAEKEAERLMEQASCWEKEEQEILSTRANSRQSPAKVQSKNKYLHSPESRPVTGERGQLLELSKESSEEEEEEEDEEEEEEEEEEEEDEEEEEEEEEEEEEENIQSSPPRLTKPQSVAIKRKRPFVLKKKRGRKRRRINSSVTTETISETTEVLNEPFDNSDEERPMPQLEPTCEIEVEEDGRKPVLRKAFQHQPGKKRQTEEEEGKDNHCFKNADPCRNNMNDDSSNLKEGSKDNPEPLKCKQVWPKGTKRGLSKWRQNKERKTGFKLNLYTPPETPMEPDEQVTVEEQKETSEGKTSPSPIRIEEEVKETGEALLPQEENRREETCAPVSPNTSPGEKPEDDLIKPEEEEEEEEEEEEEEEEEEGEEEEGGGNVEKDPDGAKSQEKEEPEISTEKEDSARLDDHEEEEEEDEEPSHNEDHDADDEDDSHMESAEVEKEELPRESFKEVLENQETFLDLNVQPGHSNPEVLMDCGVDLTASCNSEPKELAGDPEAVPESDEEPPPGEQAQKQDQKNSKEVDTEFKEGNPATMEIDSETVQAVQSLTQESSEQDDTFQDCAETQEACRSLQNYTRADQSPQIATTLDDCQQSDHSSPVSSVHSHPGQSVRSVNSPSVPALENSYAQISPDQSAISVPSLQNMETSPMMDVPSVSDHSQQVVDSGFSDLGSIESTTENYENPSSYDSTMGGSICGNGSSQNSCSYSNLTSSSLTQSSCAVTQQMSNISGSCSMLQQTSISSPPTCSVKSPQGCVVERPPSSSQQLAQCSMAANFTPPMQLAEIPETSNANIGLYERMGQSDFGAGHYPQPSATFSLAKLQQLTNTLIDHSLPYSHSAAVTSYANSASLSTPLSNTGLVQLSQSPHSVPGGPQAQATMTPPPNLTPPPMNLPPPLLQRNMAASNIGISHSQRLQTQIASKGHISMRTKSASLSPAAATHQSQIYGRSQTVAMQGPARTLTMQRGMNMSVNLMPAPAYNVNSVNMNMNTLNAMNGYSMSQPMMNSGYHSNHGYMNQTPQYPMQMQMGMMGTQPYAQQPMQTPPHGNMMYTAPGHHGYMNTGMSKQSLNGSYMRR
Experimental for KAT5: (§1) Prepare 10 mM stock solutions in 100% DMSO from solid material • 2. Serial dilute 10 mM, 1 mM or 0.1 mM compound stocks 3-fold in 100% DMSO for 11-point dose response
(§2) Prepare 1× assay buffer containing 10 mM Tris HCL pH 8.0, 2.5 mM NaCl, 0.5 mM EDTA, 0.005% BSG and 0.02% Tween-20 • 2. Dilute Histone peptide (CPC Scientific) and AcCoA (Sigma) together in assay buffer to 2×. • 3. Dilute KAT enzyme in assay buffer to 2×.
(§3) Enzyme reaction • 1. Final reaction conditions for each KAT assay in a 20 ul assay reaction volume: • i. KAT5 25 nM, 1 uM AcCoA, 2 uM H4 1-21 peptide, 30-minute reaction • ii. KAT6A 15 nM, 1 uM AcCoA, 2 uM H3 1-21 peptide, 45-minute reaction • iii. KAT6B 25 nM, 1 uM AcCoA, 2 uM H3 1-21 peptide, 60-minute reaction • iv. KAT7 12.5 nM, 1 uM AcCoA, 2 uM H3 1-21 peptide, 45-minute reaction • v. KAT8 15 nM, 1 uM AcCoA, 2 uM H3 1-21 peptide, 45-minute reaction • 2. Add 0.5 ul of diluted compound to the assay plate (384-well V-bottom polypropylene plates) or 0.5 ul of DMSO for control wells. • 3. Add 10 ul of 2× Histone peptide/2×AcCoA mix to the assay plate. • 4. Add 10 ul of 2× enzyme to the assay plate. • 5. Stop the reaction after the indicated time with the addition of 2 ul of 5% formic acid • 6. Each reaction was analyzed using self-assembled monolayer desorption/ionization time-of-flight mass spectrometry (Mrksich, Milan (2008) Mass Spectrometry of Self-Assembled Monolayers: A New Tool for Molecular Surface Science ACS Nano 2008 2 (1), 7-18; SAMDI Tech, Inc. (Chicago, Ill.)). • 7. Area under the curve (AUC) for both substrate and product peaks was determined for KAT5 at M.W. 2561 [Substrate+H]^+ and 2603 [Product+H]^+ with a +/−1 Da tolerance, respectively • 8. Area under the curve (AUC) for both substrate and product peaks was determined for KAT6a, KAT6B, KAT7 and KAT8 at M.W. 2723 [Substrate+H]^+ and 2765 [Product+H]^+ with a +/−1 Da tolerance, respectively. […] Percent conversion to product was calculated by: AUCProduct/(AUCsubstrate+AUCProduct).
(§4) IC50 values were determined by fitting the % conversion at each inhibitor concentration to the 4-parameter IC50 equation using Pfizer proprietary curve fitting software. • 2. Ki values were determined by fitting the % conversion at each inhibitor concentration to the Morrison equation for tightbinding competitive inhibitors using Pfizer proprietary curve fitting software.
(§5) KAT enzymes were expressed using a baculovirus expression system and purified at Pfizer, La Jolla. […] Acetyl coenzyme A was purchased from Sigma-Aldrich (St. Louis, Mo.). All other biochemical reagents were purchased from Sigma-Aldrich or ThermoFisher Scientific (Waltham, Mass.).
(§6) KAT assays were performed at room temperature in assay buffer containing 1 μM AcCoA, 2 μM histone peptide, 10 mM Tris HCL pH 8.0, 2.5 mM NaCl, 0.5 mM EDTA, 0.005% BSG and 0.02% Tween-20. 10 ul of 2× Histone peptide/AcCoA mix was added to a 384-well V-bottom polypropylene assay plate containing 0.5 ul of serially diluted test compound in 100% dimethyl sulfoxide (DMSO). To start the reaction, 10 ul of 2× enzyme solution was added to the assay plate. KAT assays were terminated after 30-60 minutes with the addition of 2 ul of 5% formic acid. All assays used histone H3 (1-21) peptide except for the KAT5 assay which used histone H4 (1-21) peptide. The final enzyme concentration for each KAT was as follows: KAT5, 25 nM; KAT6A, 15 nM; KAT6B, 25 nM; KAT7, 12.5 nM; KAT8 15 nM. Each reaction was analyzed using self-assembled monolayer desorption/ionization time-of-flight mass spectrometry (Mrksich, Milan (2008) Mass Spectrometry of Self-Assembled Monolayers: A New Tool for Molecular Surface Science ACS Nano 2008 2 (1), 7-18; SAMDI Tech, Inc. (Chicago, Ill.)).
(§7) Area under the curve (AUC) for both substrate and product peaks was determined for KAT5 at M.W. 2561 [Substrate+H]^+ and 2603 [Product+H]^+ with a +/−1 Da tolerance, respectively.
Experimental for KAT6B: as §1, §2, §3, §4, §5, §6, §7
Experimental for KAT7: as §1, §2, §3, §4, §5, §6, §7
Experimental for KAT8: as §1, §2, §3, §4, §5, §6, §7

A word on the Ki: it is the equilibrium dissociation constant of an inhibitor or competing ligand from its target. Consider `COc1cccc(OC)c1S(=O)(=O)Nc1noc2cc(Cn3cccn3)c(C)cc12` [Example 27], for which the Ki at KAT6A (setting [1]) is 0.00117 µM; at KAT6A (setting [2]) it was 0.00068 µM; at KAT6B (setting [3]) it was 0.00239 µM; on KAT5, 0.22 µM; at KAT7 (setting [4]), 0.05 µM; on KAT8 it was 0.53 µM.

For `COc1cccc(OC)c1S(=O)(=O)Nc1noc2cc(Cn3cccn3)cc(F)c12` [Example 94], the Ki on KAT6A (setting [1]) amounted to 0.00515 µM; at KAT6B (setting [3]), 0.0025 µM; on KAT5, 3.64 µM; on KAT7 (setting [4]), 0.63 µM; on KAT8 it was 3.26 µM.

With `COc1cc(Br)cc(OC)c1S(=O)(=O)Nc1noc2cc(Cn3cccn3)cc(OC)c12` [Example 8], the Ki at KAT6A (setting [1]) was determined as 0.00154 µM; on KAT6A (setting [2]) it was 0.00323 µM; on KAT6B (setting [3]) it was 0.00663 µM; on KAT6B (setting [5]), 0.00574 µM; on KAT5, 1.71 µM; on KAT7 (setting [4]), 0.06 µM. Besides, at KAT8, the Ki turned out to be 2.87 µM.

As for `CCc1ccc(OC)c(S(=O)(=O)Nc2noc3cc(Cn4cccn4)cc(OC)c23)c1` [Example 1, 5-ethyl-2-methoxy-N-{4-methoxy-6-[(1H-pyrazol-1-yl)methyl]-1,2-benzoxazol-3-yl}benzene-1-sulfonamide], the Ki at KAT6A (setting [1]) stood at 0.00055 µM; on KAT6A (setting [2]), 0.00043 µM; at KAT6B (setting [3]), 0.00114 µM; on KAT6B (setting [5]), 0.00068 µM; on KAT5 it was 0.12 µM; at KAT7 (setting [4]) it was 0.05 µM. The inhibition constant Ki at KAT8 was found to be 0.11 µM.

Turning to `COc1cc2c(cc1S(=O)(=O)Nc1noc3cc(Cn4cccn4)cc(OC)c13)CCC2` [Example 29], the Ki worked out at 0.00053 µM at KAT6A (setting [1]); 0.0014 µM at KAT6B (setting [3]); 0.18 µM at KAT5; 0.06 µM at KAT7 (setting [4]); 1.01 µM on KAT8.

Turning to `COc1ccc2c(c1S(=O)(=O)Nc1noc3cc(Cn4cccn4)cc(OC)c13)CCCC2` [Example 21], the Ki was 0.00123 µM on KAT6A (setting [1]); 0.00114 µM on KAT6B (setting [3]); 1.03 µM at KAT5; 0.12 µM on KAT7 (setting [4]); 0.83 µM at KAT8.

For the molecule `COc1cc(Cn2cccn2)cc2onc(NS(=O)(=O)c3ccc(C(F)F)cc3)c12` [Example 77], the Ki at KAT6A (setting [1]) was 0.00856 µM; on KAT6A (setting [2]), 0.0119 µM; on KAT6B (setting [3]), 0.0296 µM; at KAT5, 8.45 µM; at KAT7 (setting [4]), 0.46 µM; at KAT8, 12.5 µM.

For the molecule `COc1cccc(OC)c1S(=O)(=O)Nc1noc2cc(Cn3ccnn3)cc(OC)c12` [Example 22], the Ki on KAT6A (setting [1]) was found to be 0.0165 µM; at KAT6B (setting [5]), 0.0132 µM; at KAT5, 11.7 µM; at KAT7 (setting [4]), 12.9 µM; at KAT8 it was 17.4 µM.

For the molecule `COCc1ccc(OC)c(S(=O)(=O)Nc2noc3cc(Cn4cccn4)cc(OC)c23)c1` [Example 12], the Ki came out at 0.00182 µM on KAT6A (setting [1]); 0.0017 µM at KAT6A (setting [2]); 0.00214 µM at KAT6B (setting [3]); 0.00188 µM at KAT6B (setting [5]); 1.17 µM at KAT5; 0.92 µM at KAT7 (setting [4]). The Ki on KAT8 stood at 1.07 µM.

Turning to `COc1cccc(OC)c1S(=O)(=O)Nc1noc2cc(Cn3cccn3)cc(C3CC3)c12` [Example 96], the Ki at KAT6A (setting [1]) was found to be 0.00158 µM; on KAT6B (setting [3]), 0.00367 µM; at KAT5 it was 11.7 µM; on KAT7 (setting [4]), 0.9 µM; at KAT8 it was 12.5 µM.

Consider `COc1cc(Cn2cccn2)cc2onc(NS(=O)(=O)c3cc(C)c(F)c(C)c3)c12` [Example 78], for which the Ki came to 0.00564 µM on KAT6A (setting [1]); 0.00573 µM on KAT6A (setting [2]); 0.026 µM on KAT6B (setting [3]); 9.92 µM on KAT5; 0.54 µM on KAT7 (setting [4]); 12.5 µM at KAT8.

For `COc1cccc(OC)c1S(=O)(=O)Nc1noc2cc(Cn3cccn3)c(C3CC3)cc12` [Example 31], the Ki amounted to 0.00032 µM on KAT6A (setting [1]), 0.00089 µM on KAT6B (setting [3]) and 0.056 µM at KAT7 (setting [4]).

Regarding `COc1cc(C2CC2)cc(OC)c1S(=O)(=O)Nc1noc2cc(Cn3cccn3)cc(OC)c12` [Example 24], the Ki is 0.00101 µM at KAT6A (setting [1]); 0.00046 µM at KAT6A (setting [2]); 0.00189 µM on KAT6B (setting [3]); 0.19 µM on KAT5; 0.02 µM at KAT7 (setting [4]); 0.16 µM on KAT8.

In the case of `COc1cc(Cl)ccc1S(=O)(=O)Nc1noc2cc(Cn3cccn3)cc(OC)c12` [Example 71], the Ki came out at 0.00118 µM on KAT6A (setting [1]); 0.00117 µM at KAT6A (setting [2]); 0.00281 µM at KAT6B (setting [3]); 0.32 µM at KAT5; 0.03 µM at KAT7 (setting [4]); 1.44 µM on KAT8.

On to `CCc1cc(S(=O)(=O)Nc2noc3cc(Cn4cccn4)cc(OC)c23)c(OC)cc1OC` [Example 15], for which the Ki on KAT6A (setting [1]) came out at 0.00065 µM; at KAT6A (setting [2]) it was 0.00035 µM; on KAT6B (setting [3]), 0.0006 µM; on KAT5, 0.07 µM; at KAT7 (setting [4]), 0.03 µM; at KAT8, 0.17 µM.

Regarding `CCc1ccc(OC)c(S(=O)(=O)Nc2noc3cc(Cn4cccn4)c(F)cc23)c1` [Example 32], the figures for the Ki on KAT6A (setting [1]), on KAT6B (setting [3]) and on KAT7 (setting [4]) were 0.0014 µM, 0.0021 µM and 0.06 µM, respectively.

For `COc1cc(OC)c(S(=O)(=O)Nc2noc3cc(Cn4cccn4)cc(OC)c23)c(OC)c1` [Example 14], the Ki on KAT6A (setting [1]) amounted to 0.00112 µM; at KAT6A (setting [2]), 0.00049 µM; on KAT6B (setting [3]), 0.00105 µM; on KAT5, 0.27 µM; on KAT7 (setting [4]), 0.05 µM; on KAT8, 0.42 µM.

In the case of `COc1cc(OC)c(S(=O)(=O)Nc2noc3cc(Cn4cccn4)cc(OC4CC4)c23)c(OC)c1` [Example 26], the Ki was determined as 0.00801 µM at KAT6A (setting [1]); 0.00316 µM on KAT6A (setting [2]); 0.0127 µM at KAT6B (setting [3]); 125 µM on KAT5; 7.79 µM at KAT7 (setting [4]); 27.1 µM on KAT8.

Turning to `COc1cc(Cn2cccn2)cc2onc(NS(=O)(=O)c3cccc(C)c3F)c12` [Example 70], the Ki was determined as 0.00228 µM on KAT6A (setting [1]); 0.00327 µM on KAT6A (setting [2]); 0.0019 µM at KAT6B (setting [3]); 0.41 µM at KAT5; 0.14 µM at KAT7 (setting [4]); 3.26 µM on KAT8.

Regarding `COc1ccc(C2CC2)cc1S(=O)(=O)Nc1noc2cc(Cn3cccn3)cc(OC)c12` [Example 97, 5-cyclopropyl-2-methoxy-N-{4-methoxy-6-[(1H-pyrazol-1-yl)methyl]-1,2-benzoxazol-3-yl}benzene-1-sulfonamide], the inhibition constant Ki is 0.0011 µM at KAT6A (setting [1]); 0.00274 µM on KAT6B (setting [3]); 1.03 µM on KAT5; 0.12 µM on KAT7 (setting [4]); 1.51 µM at KAT8.

Consider `CCOc1ccccc1S(=O)(=O)Nc1noc2cc(Cn3cccn3)cc(OC)c12` [Example 51], for which the Ki was 0.00271 µM on KAT6A (setting [1]); 0.00167 µM at KAT6A (setting [2]); 0.00413 µM at KAT6B (setting [3]); 0.77 µM on KAT5; 0.09 µM at KAT7 (setting [4]); 1.11 µM on KAT8.

As for `COc1ccc(C(C)C)cc1S(=O)(=O)Nc1noc2cc(Cn3cccn3)cc(OC)c12` [Example 18], the Ki at KAT6A (setting [1]) is 0.00083 µM; on KAT6A (setting [2]) it was 0.00038 µM; on KAT6B (setting [3]), 0.00096 µM; at KAT5 it was 0.13 µM; at KAT7 (setting [4]), 0.12 µM; on KAT8 it was 0.1 µM.

Take `COCc1ccc(OC)c(S(=O)(=O)Nc2noc3cc(Cn4cccn4)c(F)cc23)c1` [Example 44]: the Ki at KAT6A (setting [1]) came out at 0.012 µM; at KAT6B (setting [3]), 0.043 µM; on KAT7 (setting [4]) it was 0.63 µM.

As for `COc1cc2c(cc1S(=O)(=O)Nc1noc3cc(Cn4cccn4)cc(OC)c13)CCCO2` [Example 42], the inhibition constant (Ki) is 0.00072 µM at KAT6A (setting [1]), 0.00048 µM on KAT6B (setting [3]) and 0.16 µM at KAT7 (setting [4]).

For the molecule `COc1ccccc1S(=O)(=O)Nc1noc2cc(Cn3cccn3)ccc12` [Example 34], the Ki on KAT6A (setting [1]) worked out at 0.03 µM; on KAT6B (setting [3]), 0.0042 µM; at KAT7 (setting [4]), 1.2 µM.

Regarding `COc1cccc(OC)c1S(=O)(=O)Nc1noc2cc(Cn3cccn3)c(F)c(OC)c12` [Example 128, N-{5-fluoro-4-methoxy-6-[(1H-pyrazol-1-yl)methyl]-1,2-benzoxazol-3-yl}-2,6-dimethoxybenzene-1-sulfonamide], the Ki was 0.00054 µM on KAT6A (setting [1]), 0.00059 µM on KAT6A (setting [2]), 0.0012 µM on KAT6B (setting [3]) and 0.049 µM on KAT7 (setting [4]).

Consider `COc1cccc(OC)c1S(=O)(=O)Nc1noc2cc(Cc3ncco3)cc(OC)c12` [Example 110, 2,6-dimethoxy-N-[4-methoxy-6-(1,3-oxazol-2-ylmethyl)-1,2-benzoxazol-3-yl]benzenesulfonamide], for which the Ki at KAT6A (KAT6a Ki at 1 μM AcCoA, 1 μM AcCoA) came to 0.0025 µM; at KAT6A (KAT6a Ki at 10 μM AcCoA, 10 μM AcCoA) it was 0.0021 µM; on KAT6B (setting [3]), 0.0088 µM; at KAT7 (KAT7 Ki at 1 μM AcCoA), 0.23 µM.

For the molecule `COc1cccc(OC)c1S(=O)(=O)Nc1noc2cc(Cc3ncccn3)cc(OC)c12` [Example 116], the results for the Ki at KAT6A (setting [1]), on KAT6B (setting [3]) and on KAT7 (setting [4]) were 0.003 µM, 0.025 µM and 0.095 µM, respectively.

In the case of `COc1cc2c(cc1S(=O)(=O)Nc1noc3cc(Cn4cccn4)cc(OC)c13)CCCC2` [Example 20], the Ki on KAT6A (setting [1]) was found to be 0.00034 µM; at KAT6A (setting [2]) it was 0.00087 µM; at KAT6B (setting [3]), 0.00408 µM; on KAT6B (setting [5]) it was 0.00178 µM; on KAT5, 0.15 µM; at KAT8 it was 0.47 µM.

As to `COc1cccc(OC)c1S(=O)(=O)Nc1noc2cc(Cc3ccon3)cc(OC)c12` [Example 114], the Ki came to 0.0019 µM at KAT6A (setting [1]), 0.002 µM on KAT6B (setting [3]) and 0.22 µM at KAT7 (setting [4]).

For the origin of these results see patent publication US11492346B2, “Benzisoxazole sulfonamide derivatives” (Pfizer Inc., priority 2019, dated 2022).
